Here are results for 56 compounds from US12583858B2 (Genentech, Inc., priority 2015, dated 2026).

Where only a bound is given, the exact number is not on record here.

Broadly, the EC50 is the concentration giving half of the maximal effect.

T1 sequence (P48775 whole entry): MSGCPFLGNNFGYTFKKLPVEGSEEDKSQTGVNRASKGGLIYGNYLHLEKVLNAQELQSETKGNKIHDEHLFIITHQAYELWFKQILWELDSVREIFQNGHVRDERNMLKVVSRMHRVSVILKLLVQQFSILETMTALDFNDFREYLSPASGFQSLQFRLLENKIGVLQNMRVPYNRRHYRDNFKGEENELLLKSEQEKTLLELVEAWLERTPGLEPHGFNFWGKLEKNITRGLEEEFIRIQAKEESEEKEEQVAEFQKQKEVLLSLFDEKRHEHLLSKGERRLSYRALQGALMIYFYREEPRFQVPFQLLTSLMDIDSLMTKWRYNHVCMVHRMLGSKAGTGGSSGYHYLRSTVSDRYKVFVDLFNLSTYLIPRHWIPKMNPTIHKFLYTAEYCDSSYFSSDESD

The assay has as its target T1, TDO2 (Homo sapiens, UniProt P48775).
T1 construct: decreased levels of NFK in SW48 cells (high TDO expressing cells)
Kind of assay: TDO2 cell assay (NFK GreenScreen, SW48 cells). It is filed as cell-based. Conditions: SW48 cells (high TDO expressing), 200 uM tryptophan, 24 hours; Table 3; read-out: TDO2 Cell Fluor EC50.
For `O[C@@H]1CC(CF)(CF)[C@@H]1[C@H]1c2ccccc2-c2cncn21` [Example 150a, (1R,2R)-3,3-bis(fluoromethyl)-2-((S)-5H-imidazo[5,1-a]isoindol-5-yl)cyclobutan-1-ol], the EC50 was found to be 12 µM. Then `Cn1cc2c(n1)[C@@H](O)[C@@H]([C@@H]1c3ccccc3-c3cncn31)CC2` (single isomer, unassigned) [Example 139-1d], with 0.7 µM; and `O[C@H]1CCOC[C@@H]1[C@H]1c2ccccc2-c2cncn21` [Example 05d, (3S,4S)-3-((S)-5H-imidazo[5,1-a]isoindol-5-yl)-tetrahydro-2H-pyran-4-ol], with 1 µM.

In the case of `O[C@@H]1c2ccncc2CC[C@@H]1[C@@H]1c2ccccc2-c2cncn21` (single isomer, unassigned) [Example 08g], the EC50 came to 8.3 µM.

Consider `Cn1cc2c(n1)[C@@H](O)[C@@H]([C@@H]1c3ccccc3-c3cncn31)CC2` (single isomer, unassigned) [Example 139-1c], for which the 50% effective concentration (EC50) was more than 25 µM. As for `OC1COCCC1C1c2cccc(F)c2-c2cncn21` (single isomer, unassigned) [Example 99b], the EC50 is more than 25 µM. `OC1c2cncnc2CCC1C1c2ccccc2-c2cncn21` (single isomer, unassigned) [Example 94a]: the EC50 amounted to 2.3 µM. With `N#Cc1ccc2c(c1)CCC(C1c3ccccc3-c3cncn31)C2O` (single isomer, unassigned) [Example 62d], the concentration giving a half-maximal response (EC50) came out at 0.082 µM. For the compound `C[C@H](O)[C@@H]1c2ccccc2-c2cncn21` [Example 42d, (S)-1-((S)-5H-imidazo[5,1-a]isoindol-5-yl)ethan-1-ol], the EC50 is 23.7 µM. `OC1c2cncnc2CCC1C1c2ccccc2-c2cncn21` (single isomer, unassigned) [Example 94g]: the EC50 is 14 µM. In the case of `OC1C(C2c3ccccc3-c3cncn32)CC12CCOCC2` (single isomer, unassigned) [Example 57c], the EC50 was found to be 0.4 µM.

For the compound `OC1CC2(COC2)C1C1c2ccccc2-c2cncn21` (single isomer, unassigned) [Example 87a], the concentration giving a half-maximal response (EC50) was 18 µM. For the compound `O[C@H](C1CCOCC1)[C@@H]1c2ccccc2-c2cncn21` [Example 138a, (R)—((S)-5H-imidazo[5,1-a]isoindol-5-yl)(tetrahydro-2H-pyran-4-yl)methanol], the EC50 is 9.7 µM. In the case of `N#Cc1cnn2c1C(O)C(C1c3ccccc3-c3cncn31)CC2` (single isomer, unassigned) [Example 156a], the half-maximal effective concentration (EC50) is more than 25 µM. Turning to `N#CC1CCC(O)(C2c3ccccc3-c3cncn32)CC1` (single isomer, unassigned) [Example 145b], the EC50 is 1.1 µM. As to `OC1c2ccccc2CC1C1c2ccccc2-c2cncn21` (single isomer, unassigned) [Example 19f], the EC50 was 4.4 µM.

On to `NS(=O)(=O)N1CC(O)C(C2c3ccccc3-c3cncn32)C1` (single isomer, unassigned) [Example 28d], for which the EC50 was more than 25 µM. Turning to `CCS(=O)(=O)N1CCC2(CCC(C3c4ccccc4-c4cncn43)C2O)CC1` (single isomer, unassigned) [Example 76c], the concentration for a half-maximal effect (EC50) was 0.071 µM. Take `OC1COCCC1C1c2cc(F)ccc2-c2cncn21` (single isomer, unassigned) [Example 75-1b]: the concentration for a half-maximal effect (EC50) is more than 25 µM. In the case of `O[C@H]1c2[nH]ncc2CC[C@H]1[C@H]1c2ccccc2-c2cncn21` [Example 157d, (6S,7R)-6-((S)-5H-imidazo[5,1-a]isoindol-5-yl)-4,5,6,7-tetrahydro-1H-indazol-7-ol], the EC50 is 23 µM. Regarding `OC1C(C2c3ccc(F)cc3-c3cncn32)CC12CCOCC2` (single isomer, unassigned) [Example 109h], the EC50 was more than 25 µM.

For the compound `OC1c2nonc2CCC1C1c2ccccc2-c2cncn21` (single isomer, unassigned) [Example 163f], the EC50 is more than 25 µM.

In the case of `CS(=O)(=O)N1CCC(C2c3ccc(F)cc3-c3cncn32)C(O)C1` (single isomer, unassigned) [Example 119c], the EC50 was found to be 0.22 µM. `OC1COCC1C1c2ccc(F)cc2-c2cncn21` (single isomer, unassigned) [Example 30d]: the EC50 is more than 25 µM. For the compound `O[C@@H]1CCOC[C@H]1[C@@H]1c2ccc(F)cc2-c2cncn21` [Example 34d, (3R,4R)-3-((R)-8-fluoro-5H-imidazo[5,1-a]isoindol-5-yl)-tetrahydro-2H-pyran-4-ol], the half-maximal effective concentration (EC50) amounted to 0.23 µM. On to `CC(C)(C)OC(=O)N1CCCC(O)(C2c3ccccc3-c3cncn32)C1` (single isomer, unassigned) [Example 127b], for which the EC50 was found to be 0.89 µM. As to `OC1c2cnccc2CC1C1c2ccccc2-c2cncn21` (single isomer, unassigned) [Example 71e], the EC50 is 11 µM. `OC1C(C2c3ccccc3-c3cncn32)CCC12CCOCC2` (single isomer, unassigned) [Example 68h]: the EC50 was more than 25 µM. Then `N#Cc1cc2n(n1)CCC(C1c3ccccc3-c3cncn31)C2O` (single isomer, unassigned) [Example 174a], with more than 25 µM. Consider `O[C@H]1c2cccnc2CC[C@@H]1[C@H]1c2ccccc2-c2cncn21` [Example 31b, (5R,6R)-6-((S)-5H-imidazo[5,1-a]isoindol-5-yl)-5,6,7,8-tetrahydroquinolin-5-ol], for which the EC50 came out at 1.4 µM. For `CC1(O)CCC1C1c2ccccc2-c2cncn21` (single isomer, unassigned) [Example 35a] the value was more than 25 µM; for `N#Cc1ccc2c(c1)CCC(C1c3ccccc3-c3cncn31)C2O` (single isomer, unassigned) [Example 62a], 10 µM; for `OC1CCCOCC1C1c2ccccc2-c2cncn21` (single isomer, unassigned) [Example 86b], 0.52 µM. For the compound `NC(=O)C1([C@@H](O)[C@H]2c3ccccc3-c3cncn32)CC1` [Example 165a, 1-((R)-hydroxy((R)-5H-imidazo[5,1-a]isoindol-5-yl)methyl)cyclopropane-1-carboxamide], the EC50 was 16 µM. Take `CS(=O)(=O)N1CCC(O)C(C2c3ccccc3-c3cncn32)CC1` (single isomer, unassigned) [Example 92d]: the 50% effective concentration (EC50) came to 0.24 µM.

For the compound `CC1(C)CCCC(C2c3ccccc3-c3cncn32)C1O` (single isomer, unassigned) [Example 24a], the concentration giving a half-maximal response (EC50) came out at 0.057 µM. Turning to `O[C@H]1[C@H]([C@H]2c3ccccc3-c3cncn32)CCCC1(F)F` (single isomer, unassigned) [Example 106b], the concentration for a half-maximal effect (EC50) amounted to 0.17 µM. As to `CS(=O)(=O)N1CCC2(CC1)CC(C1c3ccccc3-c3cncn31)C2O` (single isomer, unassigned) [Example 179d], the EC50 stood at 0.54 µM. Then `NC(=O)C1CCC(O)(C2c3ccccc3-c3cncn32)CC1` (single isomer, unassigned) [Example 140b], with more than 25 µM; and `N#CCN1CCC(O)C(C2c3ccccc3-c3cncn32)C1` (single isomer, unassigned) [Example 58b], with more than 25 µM; and `CC(C)(C)OC(=O)N1CC2(CC(C3c4ccccc4-c4cncn43)C2O)C1` (single isomer, unassigned) [Example 41e, tert-butyl 7-hydroxy-6-(5H-imidazo[1,5-b]isoindol-5-yl)-2-azaspiro[3.3]heptane-2-carboxylate], with 0.62 µM. As for `N#Cc1cnn2c1C(O)C(C1c3ccccc3-c3cncn31)CC2` (single isomer, unassigned) [Example 156b], the concentration for a half-maximal effect (EC50) is 0.24 µM.

Take `CC1(C)OC(C)(C)C(C2c3ccccc3-c3cncn32)C1O` (single isomer, unassigned) [Example 84c]: the EC50 is 13 µM. `Cn1ncc2c1CCC(C1c3ccccc3-c3cncn31)C2O` (single isomer, unassigned) [Example 93g]: the concentration for a half-maximal effect (EC50) was more than 25 µM.

For the compound `OC1c2cncn2CC[C@@H]1[C@@H]1c2ccccc2-c2cncn21` (stereo in doubt) [Example 07d, (7R,8S)-7-((R)-5H-imidazo[5,1-a]isoindol-5-yl)-5,6,7,8-tetrahydroimidazo[1,5-a]pyridin-8-ol], the EC50 is more than 25 µM. For the compound `NC(=O)c1ccc2c(n1)CCC(C1c3ccccc3-c3cncn31)C2O` (single isomer, unassigned) [Example 104e], the concentration for a half-maximal effect (EC50) stood at 3.4 µM. For `CN(C)C(=O)c1ccc2c(c1)CCC(C1c3ccccc3-c3cncn31)C2O` (single isomer, unassigned) [Example 98e], the EC50 came out at 22 µM.

As for `CS(=O)(=O)c1ccc2c(c1)OCC(C1c3ccccc3-c3cncn31)C2O` (single isomer, unassigned) [Example 91c], the 50% effective concentration (EC50) was more than 25 µM. Take `CC(C)[C@@H](O)[C@H]1c2ccc(F)cc2-c2cncn21` [Example 135b, (R)-1-((R)-8-fluoro-5H-imidazo[5,1-a]isoindol-5-yl)-2-methylpropan-1-ol]: the EC50 was more than 25 µM. Consider `OC1CC2(CCC2)C1C1c2ccccc2-c2cncn21` (single isomer, unassigned) [Example 67g], for which the EC50 was 2.4 µM.

With `OC1CCOCC1C1c2c(F)cccc2-c2cncn21` (single isomer, unassigned) [Example 73d], the concentration for a half-maximal effect (EC50) is more than 25 µM. Take `CS(=O)(=O)N1CCC(O)C(C2c3ccc(F)cc3-c3cncn32)C1` (single isomer, unassigned) [Example 118c]: the EC50 was found to be 13 µM. With `CC(C)(C)OC(=O)N1CC2(CC(C3c4ccccc4-c4cncn43)C2O)C1` (single isomer, unassigned) [Example 41d, tert-butyl 7-hydroxy-6-(5H-imidazo[1,5-b]isoindol-5-yl)-2-azaspiro[3.3]heptane-2-carboxylate], the EC50 worked out at 3.2 µM.

For `Cc1ccc2c(c1)C(C1COCC1O)n1cncc1-2` (single isomer, unassigned) [Example 110b], the EC50 was more than 25 µM. `OC1CC2(CCC2)C1C1c2ccccc2-c2cncn21` (single isomer, unassigned) [Example 67d]: the half-maximal effective concentration (EC50) worked out at 0.24 µM. In the case of `NC(=O)c1nc2c(s1)CCC(C1c3ccccc3-c3cncn31)C2O` (single isomer, unassigned) [Example 149g], the half-maximal effective concentration (EC50) is 24.2 µM.
